Experimental data: US7589089B2, “Inhibitors for GlyT-1” (Hoffmann-La Roche Inc., priority 2006, dated 2009)

target: T1, mGlyT-1b (Mus musculus, UniProt P28571); test: Glycine Uptake Inhibition Assay (mGlyT-1b); assay type: cell-based
T1 construct: host or cells: Flp-in-CHO
T1 sequence (P28571 1-651 isoform P28571-2): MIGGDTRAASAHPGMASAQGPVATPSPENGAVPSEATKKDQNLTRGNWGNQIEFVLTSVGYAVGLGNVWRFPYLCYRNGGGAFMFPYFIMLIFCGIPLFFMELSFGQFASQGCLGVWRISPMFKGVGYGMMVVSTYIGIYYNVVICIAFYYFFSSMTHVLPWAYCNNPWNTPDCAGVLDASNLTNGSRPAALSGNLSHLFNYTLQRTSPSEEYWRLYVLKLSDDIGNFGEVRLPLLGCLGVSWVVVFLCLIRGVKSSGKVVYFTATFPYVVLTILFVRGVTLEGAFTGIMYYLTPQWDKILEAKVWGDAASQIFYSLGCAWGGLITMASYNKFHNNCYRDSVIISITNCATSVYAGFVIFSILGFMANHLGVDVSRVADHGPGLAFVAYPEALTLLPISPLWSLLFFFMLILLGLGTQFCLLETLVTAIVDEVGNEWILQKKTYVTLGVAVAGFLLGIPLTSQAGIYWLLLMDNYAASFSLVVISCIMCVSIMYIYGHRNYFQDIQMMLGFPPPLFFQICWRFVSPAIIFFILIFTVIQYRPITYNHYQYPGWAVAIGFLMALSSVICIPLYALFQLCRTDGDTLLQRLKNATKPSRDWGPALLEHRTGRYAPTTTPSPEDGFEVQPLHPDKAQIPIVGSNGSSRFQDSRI
Experimental: DMEM complete medium: Nutrient mixture F-12 (Gibco Life-technologies), fetal bovine serum (FBS) 5%, (Gibco life technologies), Penicillin/Streptomycin 1% (Gibco life technologies), Hygromycin 0.6 mg/ml (Gibco life technologies), Glutamine 1 mM Gibco life technologies)
Uptake buffer (UB): 150 mM NaCl, 10 mM Hepes-Tris, pH 7.4, 1 mM CaCl2, 2.5 mM KCl, 2.5 mM MgSO4, 10 mM (+) D-glucose.
Flp-in™-CHO (Invitrogen Cat n° R758-07) cells stably transfected with mGlyT1b cDNA.
Glycine Uptake Inhibition Assay (mGlyT-1b)
On day 1 mammalian cells, (Flp-in™-CHO), transfected with mGlyT-1b cDNA, were plated at the density of 40,000 cells/well in complete F-12 medium, without hygromycin in 96-well culture plates. On day 2, the medium was aspirated and the cells were washed twice with uptake buffer (UB). The cells were then incubated for 20 min at 22° C. with either (i) no potential competitor, (ii) 10 mM non-radioactive glycine, (iii) a concentration of a potential inhibitor. A range of concentrations of the potential inhibitor was used to generate data for calculating the concentration of inhibitor resulting in 50% of the effect (e.g. IC50, the concentration of the competitor inhibiting glycine uptake of 50%). A solution was then immediately added containing [^3H]-glycine 60 nM (11-16 Ci/mmol) and 25 μM non-radioactive glycine. The plates were incubated with gentle shaking and the reaction was stopped by aspiration of the mixture and washing (three times) with ice-cold UB. The cells were lysed with scintillation liquid, shaken 3 hours and the radioactivity in the cells was counted using a scintillation counter.

Row | Compound | IC50
1 | N#Cc1ccc(C(=O)N(CC(=O)Nc2cccc(F)c2)Cc2ccccc2Cl)cc1 [Example 62, N-(2-Chloro-benzyl)-4-cyano-N-[(3-fluoro-phenylcarbamoyl)-methyl]-benzamide] | 0.357 µM
2 | O=C(CN(Cc1cc(F)cc(F)c1)C(=O)c1cc2ccccc2s1)Nc1cccc(F)c1 [Example 63, Benzo[b]thiophene-2-carboxylic acid (3,5-difluoro-benzyl)-[(3-fluoro-phenylcarbamoyl)-methyl]-amide] | 0.07 µM
3 | O=C(CN(Cc1cc(F)cc(F)c1)C(=O)c1ccc(OC(F)(F)F)cc1)Nc1cccc(F)c1 [Example 65, N-(3,5-Difluoro-benzyl)-N-[(3-fluoro-phenylcarbamoyl)-methyl]-4-trifluoromethoxy-benzamide] | 0.278 µM
4 | O=C(CN(Cc1ccc(F)c(F)c1)C(=O)c1cc2ccccc2s1)Nc1cccc(F)c1 [Example 66, Benzo[b]thiophene-2-carboxylic acid (3,4-difluoro-benzyl)-[(3-fluoro-phenylcarbamoyl)-methyl]-amide] | 0.167 µM
5 | O=C(CN(Cc1c(F)cccc1F)C(=O)c1cc2ccccc2s1)Nc1ccc(F)c(Cl)c1 [Example 69, Benzo[b]thiophene-2-carboxylic acid [(3-chloro-4-fluoro-phenylcarbamoyl)-methyl]-(2,6-difluoro-benzyl)-amide] | 0.09 µM
6 | O=C(CN(Cc1c(F)cccc1F)C(=O)c1ccc(OC(F)(F)F)cc1)Nc1ccc(F)c(Cl)c1 [Example 71, N-[(3-Chloro-4-fluoro-phenylcarbamoyl)-methyl]-N-(2,6-difluoro-benzyl)-4-trifluoromethoxy-benzamide] | 0.107 µM
7 | O=C(CN(Cc1ccccc1Cl)C(=O)c1cc2ccccc2s1)Nc1ccc(F)c(Cl)c1 [Example 72, Benzo[b]thiophene-2-carboxylic acid (2-chloro-benzyl)-[(3-chloro-4-fluoro-phenylcarbamoyl)-methyl]-amide] | 0.205 µM
8 | O=C(CN(Cc1ccccc1Cl)C(=O)c1ccc(Cl)cc1)Nc1ccc(F)c(Cl)c1 [Example 74, 4-Chloro-N-(2-chloro-benzyl)-N-[(3-chloro-4-fluoro-phenylcarbamoyl)-methyl]-benzamide] | 0.142 µM
9 | O=C(CN(Cc1ccccc1Cl)C(=O)c1ccc(OC(F)(F)F)cc1)Nc1ccc(F)c(Cl)c1 [Example 75, N-(2-Chloro-benzyl)-N-[(3-chloro-4-fluoro-phenylcarbamoyl)-methyl]-4-trifluoromethoxy-benzamide] | 0.259 µM
10 | O=C(CN(Cc1ccccc1Cl)C(=O)c1ccc(F)cc1)Nc1ccc(F)c(Cl)c1 [Example 76, N-(2-Chloro-benzyl)-N-[(3-chloro-4-fluoro-phenylcarbamoyl)-methyl]-4-fluoro-benzamide] | 0.159 µM
11 | N#Cc1ccc(C(=O)N(CC(=O)Nc2ccc(F)c(Cl)c2)Cc2ccccc2Cl)cc1 [Example 77, N-(2-Chloro-benzyl)-N-[(3-chloro-4-fluoro-phenylcarbamoyl)-methyl]-4-cyano-benzamide] | 0.182 µM
12 | O=C(CN(Cc1c(F)cccc1F)C(=O)c1ccc(F)cc1)Nc1ccc(F)c(Cl)c1 [Example 78, N-[(3-Chloro-4-fluoro-phenylcarbamoyl)-methyl]-N-(2,6-difluoro-benzyl)-4-fluoro-benzamide] | 0.282 µM
13 | O=C(CN(Cc1cccc(F)c1F)C(=O)c1cc2ccccc2s1)Nc1ccc(F)c(Cl)c1 [Example 80, Benzo[b]thiophene-2-carboxylic acid [(3-chloro-4-fluoro-phenylcarbamoyl)-methyl]-(2,3-difluoro-benzyl)-amide] | 0.066 µM
14 | O=C(CN(Cc1cccc(F)c1F)C(=O)c1ccc(Cl)cc1)Nc1ccc(F)c(Cl)c1 [Example 82, 4-Chloro-N-[(3-chloro-4-fluoro-phenylcarbamoyl)-methyl]-N-(2,3-difluoro-benzyl)-benzamide] | 0.108 µM
15 | O=C(CN(Cc1cccc(F)c1F)C(=O)c1ccc(OC(F)(F)F)cc1)Nc1ccc(F)c(Cl)c1 [Example 83, N-[(3-Chloro-4-fluoro-phenylcarbamoyl)-methyl]-N-(2,3-difluoro-benzyl)-4-trifluoromethoxy-benzamide] | 0.078 µM
16 | O=C(CN(Cc1cccc(F)c1F)C(=O)c1ccc(F)cc1)Nc1ccc(F)c(Cl)c1 [Example 84, N-[(3-Chloro-4-fluoro-phenylcarbamoyl)-methyl]-N-(2,3-difluoro-benzyl)-4-fluoro-benzamide] | 0.178 µM
17 | N#Cc1ccc(C(=O)N(CC(=O)Nc2ccc(F)c(Cl)c2)Cc2cccc(F)c2F)cc1 [Example 85, N-[(3-Chloro-4-fluoro-phenylcarbamoyl)-methyl]-4-cyano-N-(2,3-difluoro-benzyl)-benzamide] | 0.123 µM
18 | N#Cc1ccc(C(=O)N(CC(=O)Nc2ccc(F)c(Cl)c2)Cc2c(F)cccc2F)cc1 [Example 88, N-[(3-Chloro-4-fluoro-phenylcarbamoyl)-methyl]-4-cyano-N-(2,6-difluoro-benzyl)-benzamide] | 0.199 µM

Further lines, results first:

Row | IC50 | Compound
19 | 0.306 µM | O=C(CN(Cc1cc(F)cc(F)c1)C(=O)c1ccc(Cl)cc1)Nc1ccc(F)c(Cl)c1 [Example 89, 4-Chloro-N-[(3-chloro-4-fluoro-phenylcarbamoyl)-methyl]-N-(3,5-difluoro-benzyl)-benzamide]
20 | 0.288 µM | O=C(CN(Cc1cc(F)cc(F)c1)C(=O)c1ccc(OC(F)(F)F)cc1)Nc1ccc(F)c(Cl)c1 [Example 90, N-[(3-Chloro-4-fluoro-phenylcarbamoyl)-methyl]-N-(3,5-difluoro-benzyl)-4-trifluoromethoxy-benzamide]
21 | 0.359 µM | CC(C)(C)CCN(CC(=O)Nc1cccc(Cl)c1)C(=O)c1ccc(Cl)cc1 [Example 96, 4-Chloro-N-[(3-chloro-phenylcarbamoyl)-methyl]-N-(3,3-dimethyl-butyl)-benzamide]
22 | 0.192 µM | N#Cc1cccc(CN(CC(=O)Nc2cccc(Cl)c2)C(=O)c2ccc(Cl)cc2)c1 [Example 100, 4-Chloro-N-[(3-chloro-phenylcarbamoyl)-methyl]-N-(3-cyano-benzyl)-benzamide]
23 | 0.06 µM | COc1ccccc1CN(CC(=O)Nc1cccc(Cl)c1)C(=O)c1ccc(Cl)cc1 [Example 102, 4-Chloro-N-[(3-chloro-phenylcarbamoyl)-methyl]-N-(2-methoxy-benzyl)-benzamide]
24 | 0.142 µM | Cc1cccc(CN(CC(=O)Nc2cccc(Cl)c2)C(=O)c2ccc(Cl)cc2)c1 [Example 103, 4-Chloro-N-[(3-chloro-phenylcarbamoyl)-methyl]-N-(3-methyl-benzyl)-benzamide]
25 | 0.209 µM | Cc1ccccc1CN(CC(=O)Nc1cccc(Cl)c1)C(=O)c1ccc(Cl)cc1 [Example 104, 4-Chloro-N-[(3-chloro-phenylcarbamoyl)-methyl]-N-(2-methyl-benzyl)-benzamide]
26 | 0.021 µM | O=C(CN(Cc1cccc(Cl)c1)C(=O)c1ccc(Cl)cc1)Nc1cccc(Cl)c1 [Example 105, 4-Chloro-N-(3-chloro-benzyl)-N-[(3-chloro-phenylcarbamoyl)-methyl]-benzamide]
27 | 0.025 µM | O=C(CN(Cc1ccccc1Cl)C(=O)c1ccc(Cl)cc1)Nc1cccc(Cl)c1 [Example 106, 4-Chloro-N-(2-chloro-benzyl)-N-[(3-chloro-phenylcarbamoyl)-methyl]-benzamide]
28 | 0.199 µM | O=C(CN(Cc1ccco1)C(=O)c1ccc(Cl)cc1)Nc1cccc(Cl)c1 [Example 107, 4-Chloro-N-[(3-chloro-phenylcarbamoyl)-methyl]-N-furan-2-ylmethyl-benzamide]
